Starred links: 1 amine or outer side, 2 acyl side, 3 side chain; linkers in the order of their positions; H or OH if unused. Residues, ends and D or L forms follow the SMILES beside them. *: point of attachment. C20 diacid = O=C(O)CCCCCCCCCCCCCCCCCCC(=O)*; C18 diacid = O=C(O)CCCCCCCCCCCCCCCCC(=O)*; C16 diacid = O=C(O)CCCCCCCCCCCCCCC(=O)*; γGlu = O=C(O)[C@H](CCC(=O)[*:2])N[*:1]; Trx = NC[C@H]1CC[C@H](C(=O)O)CC1; AEEA = NCCOCCOCC(=O)O; Inp = O=C(O)C1CCNCC1
Molecular target: T1, human amylin receptors (Homo sapiens, UniProt O60896+P30988)
T1 construct: host or cells: CHO-K1/Ga15/AMY3 cells, further stably transfected with a CRE-luciferase plasmid
T1 sequence (P30988 25-474): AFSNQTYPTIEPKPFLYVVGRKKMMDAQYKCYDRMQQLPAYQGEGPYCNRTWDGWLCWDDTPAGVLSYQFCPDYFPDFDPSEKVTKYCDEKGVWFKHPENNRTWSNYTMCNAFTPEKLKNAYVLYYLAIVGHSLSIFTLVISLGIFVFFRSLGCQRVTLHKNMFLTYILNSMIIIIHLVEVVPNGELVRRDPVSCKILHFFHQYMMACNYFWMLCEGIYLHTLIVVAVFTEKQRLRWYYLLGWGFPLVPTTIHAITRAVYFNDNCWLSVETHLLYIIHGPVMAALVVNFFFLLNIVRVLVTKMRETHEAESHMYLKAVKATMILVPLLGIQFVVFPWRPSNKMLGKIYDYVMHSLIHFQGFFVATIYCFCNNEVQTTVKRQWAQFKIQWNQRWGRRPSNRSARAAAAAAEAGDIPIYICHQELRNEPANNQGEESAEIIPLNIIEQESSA
T1 sequence (O60896 24-148 partner): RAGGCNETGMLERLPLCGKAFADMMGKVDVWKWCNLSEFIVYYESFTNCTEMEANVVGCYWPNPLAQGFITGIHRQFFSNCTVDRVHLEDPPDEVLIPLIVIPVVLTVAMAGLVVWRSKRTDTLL
Assay: Luciferase assay in stably transfected amylin receptor/CRE-luc CHO cell line
Format: cell-based
Details: for Relative activity: EC50 ratio of Cagrilintide to the compound, Cagrilintide 100%; for EC50: amylin receptor/CRE-luc CHO cells, 24 hours incubation, luminescence
Text: The objective of this assay is to test the potency of derivatives of polypeptides of the present application on human amylin receptors in vitro using a luciferase assay. Using the standard protocol, CHO-K1/Ga15/AMY3 cells (purchased from GenScript, with the calcitonin receptor and the receptor activity modifying peptide (RAMP) constructed already) were transfected with a plasmid containing a luciferase expression cassette driven by multiple copies of cAMP response elements (CREs). The cells were cultured in an F12 medium containing 200 μg/mL Zeocin, 2 μg/mL puromycin, 100 μg/mL hygromycin, and 400 μg/mL G418 to afford a stably transfected amylin receptor/CRE-luc cell line. The lyophilized powder from Example 1 was dissolved in 20 mM phosphate buffer solution with a pH of 7.0, and diluted in a growth medium (F12 culture medium containing 10% FBS) to give a derivative sample with an initial concentration of 10 nM, which was then subjected to a 5-fold serial dilution in the growth medium to obtain seven samples with concentrations between […]. In each well of a white 96-well plate, 50 μL of the tested sample solution was added with a corresponding concentration. The stably transfected amylin receptor/CRE-luc CHO cells were resuspended in the growth medium at a certain density, and 50 μL of the cell suspension was added at a density of about 20000 cells per well to the white 96-well plate containing the tested sample solution. After incubation of 24 hours at 37° C. and 5% CO2, 100 μL of a Luciferase substrate was added to each well, incubated for 3 minutes, and finally was tested for luminescence on SpectraMax L (Molecular Devices) with the software SoftMax Pro 7.0.3 GxP.

Relative activity [%] | EC50 [pM] | Compound
171 | – | CC[C@H](C)[C@H](NC(=O)[C@H](CC(=O)O)NC(=O)[C@H](CCCNC(=N)N)NC(=O)[C@H](CC(=O)O)NC(=O)[C@H](CCCNC(=N)N)NC(=O)[C@H](CC(=O)O)NC(=O)[C@@H](NC(=O)[C@H](Cc1ccccc1)NC(=O)[C@H](Cc1c[nH]cn1)NC(=O)[C@H](CCCNC(=N)N)NC(=O)[C@H](CC(C)C)NC(=O)[C@H](Cc1ccccc1)NC(=O)[C@H](CC(=O)O)NC(=O)[C@H](C)NC(=O)[C@H](CC(C)C)NC(=O)[C@H](CCCNC(=N)N)NC(=O)[C@H](CCC(N)=O)NC(=O)[C@@H](NC(=O)[C@H](C)NC(=O)[C@H](C)NC(=O)[C@@H](NC(=O)[C@H](CO)NC(=O)[C@H](CC(C)C)NC(=O)[C@H](CCC(N)=O)NC(=O)[C@H](CO)NC(=O)[C@H](C)NC(=O)COCCOCCNC(=O)COCCOCCNC(=O)[C@H]1CC[C@H](CNC(=O)CCCCCCCCCCCCCCCCCCC(=O)O)CC1)[C@@H](C)O)[C@@H](C)O)[C@@H](C)O)C(=O)N[C@@H](CC(C)C)C(=O)N1CCC[C@H]1C(=O)N1CCC[C@H]1C(=O)N[C@H](C(=O)N[C@@H](CC(N)=O)C(=O)N[C@H](C(=O)NCC(=O)N[C@@H](CO)C(=O)N[C@@H](CC(N)=O)C(=O)N[C@H](C(=O)N1CCC[C@H]1C(N)=O)[C@@H](C)O)C(C)C)[C@@H](C)O [M20] ({C20 diacid-Trx-AEEA-AEEA}-ASQLSTAATQRLADFLRHFTDRDRDILPPTNVGSNTP-NH2)
126 | 23 | CC[C@H](C)[C@H](NC(=O)[C@H](CC(=O)O)NC(=O)[C@H](CCCNC(=N)N)NC(=O)[C@H](CC(=O)O)NC(=O)[C@H](CCCNC(=N)N)NC(=O)[C@H](CC(=O)O)NC(=O)[C@@H](NC(=O)[C@H](Cc1ccccc1)NC(=O)[C@H](Cc1c[nH]cn1)NC(=O)[C@H](CCCNC(=N)N)NC(=O)[C@H](CC(C)C)NC(=O)[C@H](Cc1ccccc1)NC(=O)[C@H](CC(=O)O)NC(=O)[C@H](C)NC(=O)[C@H](CC(C)C)NC(=O)[C@H](CCCNC(=N)N)NC(=O)[C@H](CCC(N)=O)NC(=O)[C@@H](NC(=O)[C@H](C)NC(=O)[C@H](C)NC(=O)[C@@H](NC(=O)[C@H](CO)NC(=O)[C@H](CC(C)C)NC(=O)[C@H](CCC(N)=O)NC(=O)[C@H](CO)NC(=O)[C@H](C)NC(=O)COCCOCCNC(=O)COCCOCCNC(=O)C1CCN(C(=O)CCCCCCCCCCCCCCCCCCC(=O)O)CC1)[C@@H](C)O)[C@@H](C)O)[C@@H](C)O)C(=O)N[C@@H](CC(C)C)C(=O)N1CCC[C@H]1C(=O)N1CCC[C@H]1C(=O)N[C@H](C(=O)N[C@@H](CC(N)=O)C(=O)N[C@H](C(=O)NCC(=O)N[C@@H](CO)C(=O)N[C@@H](CC(N)=O)C(=O)N[C@H](C(=O)N1CCC[C@H]1C(N)=O)[C@@H](C)O)C(C)C)[C@@H](C)O [M21] ({C20 diacid-Inp-AEEA-AEEA}-ASQLSTAATQRLADFLRHFTDRDRDILPPTNVGSNTP-NH2)
198 | 16 | CC[C@H](C)[C@H](NC(=O)[C@H](CC(=O)O)NC(=O)[C@H](CCCNC(=N)N)NC(=O)[C@H](CC(=O)O)NC(=O)[C@H](CCCNC(=N)N)NC(=O)[C@H](CC(=O)O)NC(=O)[C@@H](NC(=O)[C@H](Cc1ccccc1)NC(=O)[C@H](Cc1c[nH]cn1)NC(=O)[C@H](CCCNC(=N)N)NC(=O)[C@H](CC(C)C)NC(=O)[C@H](Cc1ccccc1)NC(=O)[C@H](CC(=O)O)NC(=O)[C@H](C)NC(=O)[C@H](CC(C)C)NC(=O)[C@H](CCCNC(=N)N)NC(=O)[C@H](CCC(N)=O)NC(=O)[C@@H](NC(=O)[C@H](C)NC(=O)[C@H](C)NC(=O)[C@@H](NC(=O)[C@H](CO)NC(=O)[C@H](CC(C)C)NC(=O)[C@H](CCC(N)=O)NC(=O)[C@H](CO)NC(=O)[C@H](C)NC(=O)CC[C@H](NC(=O)CCCCCCCCCCCCCCCCC(=O)O)C(=O)O)[C@@H](C)O)[C@@H](C)O)[C@@H](C)O)C(=O)N[C@@H](CC(C)C)C(=O)N1CCC[C@H]1C(=O)N1CCC[C@H]1C(=O)N[C@H](C(=O)N[C@@H](CC(N)=O)C(=O)N[C@H](C(=O)NCC(=O)N[C@@H](CO)C(=O)N[C@@H](CC(N)=O)C(=O)N[C@H](C(=O)N1CCC[C@H]1C(N)=O)[C@@H](C)O)C(C)C)[C@@H](C)O [M22] ({C18 diacid-γGlu}-ASQLSTAATQRLADFLRHFTDRDRDILPPTNVGSNTP-NH2)
182 | 17 | CC[C@H](C)[C@H](NC(=O)[C@H](CC(=O)O)NC(=O)[C@H](CCCNC(=N)N)NC(=O)[C@H](CC(=O)O)NC(=O)[C@H](CCCNC(=N)N)NC(=O)[C@H](CC(=O)O)NC(=O)[C@@H](NC(=O)[C@H](Cc1ccccc1)NC(=O)[C@H](Cc1c[nH]cn1)NC(=O)[C@H](CCCNC(=N)N)NC(=O)[C@H](CC(C)C)NC(=O)[C@H](Cc1ccccc1)NC(=O)[C@H](CC(=O)O)NC(=O)[C@H](C)NC(=O)[C@H](CC(C)C)NC(=O)[C@H](CCCNC(=N)N)NC(=O)[C@H](CCC(N)=O)NC(=O)[C@@H](NC(=O)[C@H](C)NC(=O)[C@H](C)NC(=O)[C@@H](NC(=O)[C@H](CO)NC(=O)[C@H](CC(C)C)NC(=O)[C@H](CCC(N)=O)NC(=O)[C@H](CO)NC(=O)[C@H](C)NC(=O)CC[C@H](NC(=O)CCCCCCCCCCCCCCC(=O)O)C(=O)O)[C@@H](C)O)[C@@H](C)O)[C@@H](C)O)C(=O)N[C@@H](CC(C)C)C(=O)N1CCC[C@H]1C(=O)N1CCC[C@H]1C(=O)N[C@H](C(=O)N[C@@H](CC(N)=O)C(=O)N[C@H](C(=O)NCC(=O)N[C@@H](CO)C(=O)N[C@@H](CC(N)=O)C(=O)N[C@H](C(=O)N1CCC[C@H]1C(N)=O)[C@@H](C)O)C(C)C)[C@@H](C)O [M23] ({C16 diacid-γGlu}-ASQLSTAATQRLADFLRHFTDRDRDILPPTNVGSNTP-NH2)
47 | 66 | CC[C@H](C)[C@H](NC(=O)[C@H](CC(=O)O)NC(=O)[C@H](CCCNC(=N)N)NC(=O)[C@H](CC(=O)O)NC(=O)[C@H](CCCNC(=N)N)NC(=O)[C@H](CC(=O)O)NC(=O)[C@@H](NC(=O)[C@H](Cc1ccccc1)NC(=O)[C@H](Cc1c[nH]cn1)NC(=O)[C@H](CCCNC(=N)N)NC(=O)[C@H](CC(C)C)NC(=O)[C@H](Cc1ccccc1)NC(=O)[C@H](CC(=O)O)NC(=O)[C@H](C)NC(=O)[C@H](CC(C)C)NC(=O)[C@H](CCCNC(=N)N)NC(=O)[C@H](CCC(N)=O)NC(=O)[C@@H](NC(=O)[C@H](C)NC(=O)[C@H](C)NC(=O)[C@@H](NC(=O)[C@H](CO)NC(=O)[C@H](CC(C)C)NC(=O)[C@H](CCC(N)=O)NC(=O)[C@H](CO)NC(=O)[C@H](C)NC(=O)COCCOCCNC(=O)COCCOCCNC(=O)COCCOCCNC(=O)COCCOCCNC(=O)CC[C@H](NC(=O)CCCCCCCCCCCCCCCCCCC(=O)O)C(=O)O)[C@@H](C)O)[C@@H](C)O)[C@@H](C)O)C(=O)N[C@@H](CC(C)C)C(=O)N1CCC[C@H]1C(=O)N1CCC[C@H]1C(=O)N[C@H](C(=O)N[C@@H](CC(N)=O)C(=O)N[C@H](C(=O)NCC(=O)N[C@@H](CO)C(=O)N[C@@H](CC(N)=O)C(=O)N[C@H](C(=O)N1CCC[C@H]1C(N)=O)[C@@H](C)O)C(C)C)[C@@H](C)O [M24] ({C20 diacid-γGlu-AEEA-AEEA-AEEA-AEEA}-ASQLSTAATQRLADFLRHFTDRDRDILPPTNVGSNTP-NH2)
